# From publication PMC5309245, “Discovery and Characterization of Diazenylaryl Sulfonic Acids as Inhibitors of Viral and Bacterial Neuraminidases” (Frontiers in Microbiology, 2017)
# How the values were obtained:
# [1] = system: influenza A virus 8178/09; assay: microbe, parasite or virus in culture; type: cell-based, influenza A virus A/Jena/8178/2009 (H1N1)
# human erythrocytes [2] = type: cell-based; details: human erythrocytes, 4 h at 37°C and 12 h at 4°C
# Experimental: (§1) Viral (whole virus) and bacterial NA activity as well as their inhibition were measured by using a fluorescence (FL) assay with the substrate 2′-(4-methylumbelliferyl)-α-D-N-acetylneuraminic acid sodium salt hydrate (MUNANA, 100 μM; Sigma-Aldrich GmbH, Taufkirchen, Germany), and/or a hemagglutination (HA)-based NA inhibition assay (HA assay) with human erythrocytes (Institute of Transfusion Medicine, University Hospital Jena, Jena, Germany), both assays as published recently (Richter et al., [2015]). Recombinant NanA (rNanA) and total precipitated bacterial protein of S. pneumoniae DSM20566 were used in FL and HA assays. Interference of the compounds with the FL signal (self-fluorescence and quenching) was excluded as described previously (Richter et al., [2015]). […] Each compound was tested at least three times in both NA inhibition assays.
# Supplementary Table 1. […]
# eTest compounds lysed the human erythrocytes (4 h at 37°C and 12 h at 4°C).
# [3] = system: S. pneumoniae DSM20566 biofilm; assay: Biofilm inhibition assay; type: cell-based, Streptococcus pneumoniae DSM20566
# [4] = target: T1, S. pneumoniae DSM20566 NA (NanA) (Streptococcus pneumoniae, UniProt P62575); assay: FL NA inhibition assay, S. pneumoniae DSM20566; type: biochemical; details: MUNANA substrate; for IC50: read-out: NA inhibition using FL assay IC50, S. p. DSM20566
# T1 construct: host or cells: either rNanA from E. coli BL21(DE3) or total precipitated protein of S. pneumoniae DSM20566
# T1 sequence (P62575 54-1035): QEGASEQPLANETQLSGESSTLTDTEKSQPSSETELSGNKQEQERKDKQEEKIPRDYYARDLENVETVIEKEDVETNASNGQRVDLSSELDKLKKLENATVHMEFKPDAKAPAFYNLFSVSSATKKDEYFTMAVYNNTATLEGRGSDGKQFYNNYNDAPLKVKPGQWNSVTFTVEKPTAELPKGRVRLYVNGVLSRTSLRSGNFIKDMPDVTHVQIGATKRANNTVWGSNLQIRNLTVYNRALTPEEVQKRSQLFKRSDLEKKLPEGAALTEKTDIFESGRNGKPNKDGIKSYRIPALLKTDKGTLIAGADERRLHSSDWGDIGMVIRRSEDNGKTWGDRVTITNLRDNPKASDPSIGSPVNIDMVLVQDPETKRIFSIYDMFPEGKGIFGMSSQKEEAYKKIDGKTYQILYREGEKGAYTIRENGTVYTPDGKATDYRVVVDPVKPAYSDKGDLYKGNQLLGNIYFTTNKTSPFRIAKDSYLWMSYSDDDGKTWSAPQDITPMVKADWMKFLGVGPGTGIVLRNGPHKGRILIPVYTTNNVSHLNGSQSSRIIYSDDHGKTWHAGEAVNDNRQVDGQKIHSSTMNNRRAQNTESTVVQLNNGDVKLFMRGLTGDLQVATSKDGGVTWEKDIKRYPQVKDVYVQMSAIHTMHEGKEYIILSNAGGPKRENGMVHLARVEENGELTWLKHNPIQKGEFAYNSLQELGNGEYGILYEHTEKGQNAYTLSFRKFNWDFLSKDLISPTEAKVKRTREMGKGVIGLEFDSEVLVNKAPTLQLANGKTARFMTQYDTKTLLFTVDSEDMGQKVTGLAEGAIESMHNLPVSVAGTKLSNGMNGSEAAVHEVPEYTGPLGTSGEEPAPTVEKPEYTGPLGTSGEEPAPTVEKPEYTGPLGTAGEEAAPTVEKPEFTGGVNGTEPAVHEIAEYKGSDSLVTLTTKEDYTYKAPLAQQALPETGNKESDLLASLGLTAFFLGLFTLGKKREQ
# [5] = target: T2, S. pneumoniae DSM20566 NA (Streptococcus pneumoniae, UniProt P62575); assay: HA-based NA inhibition assay, S. pneumoniae DSM20566; type: cell-based; details: human erythrocytes
# T2 construct: host or cells: either rNanA from E. coli BL21(DE3) or total precipitated protein of S. pneumoniae DSM20566
# T2 sequence (P62575 54-1035): as above
# in vitro = details: dog
# IAV 5258/09 NA = assay: Hemagglutination (HA)-based NA inhibition assay, IAV 5258/09; type: cell-based, influenza A virus A/Jena/5258/2009 (H1N1); details: human erythrocytes
# [6] = target: IAV HK/68 NA (whole virus) (Influenza A virus, UniProt Q91MA2); assay: biochemical; design: species or system influenza A virus A/Hong Kong/68 (H3N2); details: for IC50: NA inhibition using FL assay IC50, IAV HK/68
# IAV HK/68 NA (whole virus), sequence (Q91MA2 whole entry, looked up): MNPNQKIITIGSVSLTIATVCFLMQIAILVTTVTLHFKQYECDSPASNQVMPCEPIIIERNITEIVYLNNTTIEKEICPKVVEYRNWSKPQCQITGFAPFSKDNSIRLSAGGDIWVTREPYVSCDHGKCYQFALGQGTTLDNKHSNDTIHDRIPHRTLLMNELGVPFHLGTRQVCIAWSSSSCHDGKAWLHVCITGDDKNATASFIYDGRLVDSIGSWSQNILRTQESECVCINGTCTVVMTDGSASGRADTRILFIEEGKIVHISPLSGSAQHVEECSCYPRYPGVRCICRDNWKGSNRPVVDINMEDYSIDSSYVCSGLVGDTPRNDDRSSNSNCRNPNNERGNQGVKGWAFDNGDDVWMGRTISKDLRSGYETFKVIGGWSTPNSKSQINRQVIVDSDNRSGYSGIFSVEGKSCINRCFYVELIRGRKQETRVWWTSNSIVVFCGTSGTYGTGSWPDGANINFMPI
# influenza A virus WSN/33 = assay: microbe, parasite or virus in culture; type: cell-based, influenza A virus A/WSN/1933 (H1N1)
# influenza A virus HK/68 = assay: microbe, parasite or virus in culture; type: cell-based, influenza A virus A/Hong Kong/68 (H3N2)
# S. pneumoniae DSM20566 = assay: Microtiter broth microdilution assay, planktonic growth; type: cell-based, Streptococcus pneumoniae DSM20566; details: 18 h, maximum 50 μM
# human erythrocytes [7] = type: cell-based; details: human erythrocytes, 2 h at 4°C
# Experimental: as §1
# Supplementary Table 1. Assay interference phenomena of test compounds in the HA-based […]
# sample concentrations [µM] in viral HA-assay bacterial HA-assay […]
# hem- prevention of erythrocyte hem- erythrocyte agglutinationa virus-induced lysisc agglutinationd lysise […]
# cTest compounds lysed the human erythrocytes (2 h at 4°C). […]
# [8] = target: IAV WSN/33 NA-wt (whole virus) (Influenza A virus, UniProt P03470); assay: biochemical; design: species or system influenza A virus A/WSN/1933 (H1N1); details: for IC50: NA inhibition using FL assay IC50, IAV WSN/33
# IAV WSN/33 NA-wt (whole virus), sequence (P03470 whole entry, looked up): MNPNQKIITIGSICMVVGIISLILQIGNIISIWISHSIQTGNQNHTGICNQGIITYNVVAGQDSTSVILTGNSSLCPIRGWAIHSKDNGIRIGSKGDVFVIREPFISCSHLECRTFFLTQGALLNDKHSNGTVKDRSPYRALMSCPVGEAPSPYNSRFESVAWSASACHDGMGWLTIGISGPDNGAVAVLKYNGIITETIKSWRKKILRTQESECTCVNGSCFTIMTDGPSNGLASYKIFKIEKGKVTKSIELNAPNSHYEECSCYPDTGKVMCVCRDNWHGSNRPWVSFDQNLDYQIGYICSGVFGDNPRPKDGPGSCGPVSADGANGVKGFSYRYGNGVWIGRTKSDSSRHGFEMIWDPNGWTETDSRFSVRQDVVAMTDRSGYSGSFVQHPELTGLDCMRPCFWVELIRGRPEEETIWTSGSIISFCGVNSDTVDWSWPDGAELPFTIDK
Structure (SMILES),"50% inhibitory concentration, influenza A virus 8178/09 [1]","sample concentrations provoking erythrocyte lysis, bacterial HA-assay (human erythrocytes [2])","IC50 ([3]; Streptococcus pneumoniae, DSM20566, 24 h, maximum 50 μM, read-out: 50% inhibitory concentration, S. pneumoniae DSM20566 biofilm formation) [µM]",IC50 [4] [µM],"NA inhibition using HA assay MIC, S. p. DSM20566 [5]",CC50 (in vitro) [µM],"NA inhibition using HA assay MIC, IAV 5258/09 (IAV 5258/09 NA)",IC50 [6] [µM],"50% inhibitory concentration, influenza A virus WSN/33 (influenza A virus WSN/33)","50% inhibitory concentration, influenza A virus HK/68 (influenza A virus HK/68)","50% inhibitory concentration, S. pneumoniae DSM20566 planktonic growth (S. pneumoniae DSM20566)","sample concentrations provoking erythrocyte lysis, viral HA-assay (human erythrocytes [7])","50% inhibitory concentration, S. pneumoniae DSM20566 biofilm formation ([3]; 24 h, maximum 50 μM)","NA inhibition using FL assay IC50, IAV HK/68 [6]",IC50 [8] [µM],"NA inhibition using FL assay IC50, IAV WSN/33 [8]","NA inhibition using FL assay IC50, S. p. DSM20566 [4]","inhibition at 50 µM ([3]; Streptococcus pneumoniae, DSM20566, 50 μM, read-out: Inhibition of biofilm formation at the maximum tested concentration) [%]","IC50 (S. pneumoniae DSM20566; Streptococcus pneumoniae, DSM20566, read-out: 50% inhibitory concentration, S. pneumoniae DSM20566 planktonic growth) [µM]"
Cc1ccccc1/N=N/c1ccc(/N=N/c2c(O)ccc3cc(S(=O)(=O)O)cc(S(=O)(=O)O)c23)c(C)c1 [Compound 5],Not active,no,42.2 ± 2.57,0.97 ± 0.3,2.44 ± 1.25 µM,> 100,10.00 ± 0.00 µM,17.8 ± 3.25,Not active,Not active,Not active,no,–,–,–,–,–,–,–
COc1cc(/N=N/c2ccc(S(=O)(=O)O)cc2)ccc1/N=N/c1c(O)ccc2cc(S(=O)(=O)O)ccc12 [Compound 8],Not active,no,–,3.9 ± 0.51,Not active,> 100,Not active,–,Not active,Not active,Not active,no,Not active,Not active,6.51 ± 0.72,–,–,–,–
O=S(=O)(O)c1ccc(/N=N/c2ccc(/N=N/c3c(O)c(S(=O)(=O)O)cc4cc(S(=O)(=O)O)ccc34)cc2)cc1 [Compound 9],Not active,no,–,32 ± 10.9,Not active,> 100,Not active,–,Not active,Not active,Not active,no,Not active,Not active,22.7 ± 2.91,–,–,–,–
O=S(=O)(O)c1ccc2c(/N=N/c3ccccc3)c(O)ccc2c1 [Compound 10],Not active,no,–,10.2 ± 1.35,Not active^c,> 100,Not active^c,–,Not active,Not active,Not active,no,Not active,Not active,–,Not active,–,–,–
O=[N+]([O-])c1ccc(/N=N/c2c(O)ccc3cc(S(=O)(=O)O)ccc23)cc1 [Compound 11],Not active,no,–,23.2 ± 13.1,Not active,> 100,Not active,77.3 ± 10.6,Not active,Not active,Not active,no,Not active,–,33.1 ± 4.6,–,–,–,–
O=[N+]([O-])c1ccc(/N=N/c2c(O)c(S(=O)(=O)O)cc3cc(S(=O)(=O)O)ccc23)cc1 [Compound 12],Not active,no,–,–,Not active,> 100,Not active,–,Not active,Not active,Not active,no,Not active,Not active,–,Not active,Not active,–,–
O=[N+]([O-])c1cccc(/N=N/c2c(O)c(S(=O)(=O)O)cc3cc(S(=O)(=O)O)ccc23)c1 [Compound 13],Not active,no,–,–,Not active,> 100,Not active,–,Not active,Not active,Not active,no,Not active,Not active,–,Not active,Not active,–,–
O=S(=O)(O)c1ccc2c(/N=N/c3c(O)ccc4ccccc34)cccc2c1 [Compound 14],Not active,no,–,5.74 ± 1.41,Not active^c,> 100,Not active^c,83 ± 6.25,Not active,Not active,Not active,no,Not active,–,28.9 ± 6.9,–,–,–,–
O=S(=O)(O)c1cc(/N=N/c2c(O)ccc3ccccc23)c2c(S(=O)(=O)O)cccc2c1 [Compound 15],Not active,no,–,46.8 ± 5.27,Not active^c,> 100,Not active^c,–,Not active,Not active,Not active,no,Not active,Not active,28.7 ± 3.3,–,–,–,–
O=S(=O)(O)c1cc(S(=O)(=O)O)c2c(/N=N/c3cccc4ccccc34)c(O)ccc2c1 [Compound 16],Not active,no,–,7.68 ± 0.98,24.40 ± 12.47 µM,> 100,31.60 ± 0.00 µM,–,Not active,Not active,–,no,–,Not active,44.3 ± 2.38,–,–,46,12 ± 6.81
